Results reported in ChEMBL document CHEMBL1201862, “PubChem BioAssay data set” (2004).
Where “and” joins values, the source holds several entries; their conditions need not be identical. Identical values can stand only once.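 Exposure lasted 48 hours, with cells grown in 96-well plates and compounds tested at five concentrations. GI50 is the concentration that inhibits growth by half.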 Calls of active or inactive are those of the source. Rule as the data show it: active = GI50 up to about 1.1 µM and inactive = higher.

Key:
Experiment in all cases: DTP human tumour cell line panel, 48 h
SNB-19 = tested on: SNB-19
HCT-15 = tested on: HCT-15
SF-539 = tested on: SF-539
SNB-75 = tested on: SNB-75
SW-620 = tested on: SW-620
MOLT-4 = tested on: MOLT-4
CAKI-1 = tested on: CAKI-1
NCI-H460 = tested on: NCI-H460
CCRF-CEM = tested on: CCRF-CEM
IGROV-1 = tested on: IGROV-1
HL-60 = tested on: HL-60
ACHN = tested on: ACHN
XF498 = tested on: XF498
SK-OV-3 = tested on: SK-OV-3
HOP-18 = tested on: HOP-18
SK-MEL-5 = tested on: SK-MEL-5
DLD-1 = tested on: DLD-1
DMS-273 = tested on: DMS-273
DMS-114 = tested on: DMS-114
786-0 = tested on: 786-0
RXF 393 = tested on: RXF 393
RPMI-8226 = tested on: RPMI-8226
LOX IMVI = tested on: LOX IMVI
UACC-257 = tested on: UACC-257
KM-20L2 = tested on: KM-20L2
M19-MEL = tested on: M19-MEL
SN12C = tested on: SN12C
COLO 205 = tested on: COLO 205
SK-MEL-28 = tested on: SK-MEL-28
UACC-62 = tested on: UACC-62
NCI-H522 = tested on: NCI-H522
NCI-H23 = tested on: NCI-H23
EKVX = tested on: EKVX
Malme-3M = tested on: Malme-3M
TK-10 = tested on: TK-10
HCT-116 = tested on: HCT-116
HT-29 = tested on: HT-29
OVCAR-8 = tested on: OVCAR-8
SK-MEL-2 = tested on: SK-MEL-2
KM12 = tested on: KM12
HOP-62 = tested on: HOP-62
RXF 631 = tested on: RXF 631
U-251 = tested on: U-251
OVCAR-3 = tested on: OVCAR-3
SR = tested on: SR
OVCAR-5 = tested on: OVCAR-5
A549 = tested on: A549
A498 = tested on: A498
K562 = tested on: K562
NCI-H226 = tested on: NCI-H226
SF-268 = tested on: SF-268
SNB-78 = tested on: SNB-78
SF-295 = tested on: SF-295
UO-31 = tested on: UO-31
HOP-92 = tested on: HOP-92
HCC 2998 = tested on: HCC 2998
OVCAR-4 = tested on: OVCAR-4
LXFL 529 = tested on: LXFL 529
M14 = tested on: M14

OC(c1ccccc1)(c1ccccc1)c1ccccn1
GI50 (SNB-19): > 100 µM (inactive) | GI50 (HCT-15): > 100 µM | GI50 (SF-539): > 100 µM (inactive) | GI50 (SNB-75): > 100 µM (inactive) and 63.7 µM (inactive) | GI50 (SW-620): > 100 µM (inactive) | GI50 (MOLT-4): > 100 µM (inactive) | GI50 (CAKI-1): > 100 µM (inactive) and 85.7 µM (inactive) | GI50 (NCI-H460): > 100 µM (inactive) | GI50 (CCRF-CEM): > 100 µM (inactive) | GI50 (IGROV-1): > 100 µM (inactive) | GI50 (HL-60): 71.3 µM (inactive) | GI50 (ACHN): > 100 µM (inactive) | GI50 (XF498): > 100 µM (inactive) | GI50 (SK-OV-3): > 100 µM (inactive) | GI50 (HOP-18): > 100 µM (inactive) | GI50 (SK-MEL-5): > 100 µM (inactive) | GI50 (DLD-1): > 100 µM (inactive) | GI50 (DMS-273): > 100 µM (inactive) | GI50 (DMS-114): 72.9 µM (inactive) | GI50 (786-0): > 100 µM (inactive) | GI50 (RXF 393): > 100 µM (inactive) | GI50 (RPMI-8226): 95.5 µM (inactive) | GI50 (LOX IMVI): > 100 µM (inactive) | GI50 (UACC-257): > 100 µM (inactive) | GI50 (KM-20L2): > 100 µM (inactive) | GI50 (M19-MEL): > 100 µM (inactive) | GI50 (SN12C): > 100 µM (inactive) | GI50 (COLO 205): > 100 µM (inactive) | GI50 (SK-MEL-28): > 100 µM (inactive) | GI50 (UACC-62): > 100 µM (inactive) | GI50 (NCI-H522): > 100 µM (inactive) | GI50 (NCI-H23): 83 µM (inactive) | GI50 (EKVX): > 100 µM (inactive) | GI50 (Malme-3M): > 100 µM (inactive) | GI50 (TK-10): > 100 µM (inactive) | GI50 (HCT-116): > 100 µM (inactive) | GI50 (HT-29): > 100 µM (inactive) | GI50 (OVCAR-8): > 100 µM (inactive) | GI50 (SK-MEL-2): > 100 µM (inactive) | GI50 (KM12): > 100 µM (inactive) | GI50 (HOP-62): > 100 µM (inactive) | GI50 (RXF 631): > 100 µM (inactive) | GI50 (U-251): > 100 µM (inactive) | GI50 (OVCAR-3): > 100 µM (inactive) | GI50 (SR): > 100 µM (inactive) | GI50 (OVCAR-5): > 100 µM (inactive) | GI50 (A549): > 100 µM (inactive) | GI50 (A498): > 100 µM (inactive) | GI50 (K562): > 100 µM (inactive) | GI50 (NCI-H226): > 100 µM (inactive) | GI50 (SF-268): > 100 µM (inactive) | GI50 (SNB-78): > 100 µM (inactive) | GI50 (SF-295): > 100 µM (inactive) and 80.5 µM (inactive) | GI50 (UO-31): > 100 µM (inactive) | GI50 (HOP-92): > 100 µM (inactive) | GI50 (HCC 2998): > 100 µM (inactive) | GI50 (OVCAR-4): > 100 µM (inactive) | GI50 (LXFL 529): > 100 µM (inactive) | GI50 (M14): > 100 µM (inactive)
